Data taken from patent publication US20230399612A1, “METHOD FOR THE GENERATION OF NEUROSPHERES” (KUGELMEIERS LTD., priority 2020, published 2023).
Read-outs that look alike come from different tables or passages of the source.

Tested on: Hi-Q organoids
Test: Calcium imaging in sections of Hi-Q brain organoids (Oregon Green BAPTA 1)
Format: cell-based, human
Conditions: for calcium signals on addition of the substance: more evident in older than in younger organoids, FIG. 4C-D

| Compound | response of organoids to added transmitter (calcium imaging) (Day 30 organoids, FIG. 4C) | response of organoids to added transmitter (calcium imaging) (Day 40 organoids, FIG. 4D) | calcium signals on addition of the substance | other results |
| --- | --- | --- | --- | --- |
| NC1=N[C@H](O)[C@H]2[C@H]3O[C@]4(O)O[C@@H]([C@@H](O)[C@@]2(N1)[C@@H]4O)[C@]3(O)CO [TTX, tetrodotoxin] | – | – | – | effect on the response to GABA: not altered; inhibition of sodium channels in the brain organoids, analyzed by calcium imaging: inhibits sodium channels |
| NS(=O)(=O)c1cccc2c1c([N+](=O)[O-])cc1nc(O)c(O)nc12 [NBQX] | – | – | – | effect on calcium signals evoked by GABA or glutamate (involvement of AMPA receptors) (blocker added): blocked |
| NCCCC(=O)O [GABA] | respond | respond | spike in calcium signals | – |
| NiCl2 | – | – | – | effect on the response to GABA (blocker added, calcium signal evoked by GABA): blocked |
| glutamate | no response | respond | spike in calcium signals | – |
